Measured values reported in ChEMBL document CHEMBL1201862, “PubChem BioAssay data set” (2004).
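How tested: cells in 96-well plates exposed to compound for 48 hours at five concentrations. GI50 = concentration required for 50% inhibition of growth.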 Calls of active or inactive are those of the source. Cut-off read from the data, not from the text of the source: active = GI50 up to about 1.1 µM and inactive = higher.

Assays:
Experiment in all cases: inhibition of tumour cell growth, NCI panel, 48 h
[1] = tested on: HCT-15
[2] = tested on: NCI-H226
[3] = tested on: SK-OV-3
[4] = tested on: M14
[5] = tested on: SF-295
[6] = tested on: OVCAR-8
[7] = tested on: OVCAR-5
[8] = tested on: K562
[9] = tested on: COLO 205
[10] = tested on: SF-268
[11] = tested on: HCT-116
[12] = tested on: U-251
[13] = tested on: UACC-62
[14] = tested on: SK-MEL-28
[15] = tested on: A498
[16] = tested on: EKVX
[17] = tested on: SW-620
[18] = tested on: OVCAR-3
[19] = tested on: HL-60
[20] = tested on: NCI-H460

| SMILES | GI50 [1] [µM] | GI50 [2] | GI50 [3] | GI50 [4] | GI50 [5] | GI50 [6] | GI50 [7] | GI50 [8] | GI50 [9] | GI50 [10] | GI50 [11] | GI50 [12] | GI50 [13] | GI50 [14] | GI50 [15] | GI50 [16] | GI50 [17] | GI50 [18] | GI50 [19] | GI50 [20] |
| --- | --- | --- | --- | --- | --- | --- | --- | --- | --- | --- | --- | --- | --- | --- | --- | --- | --- | --- | --- | --- |
| Cc1ccc2c3c1[C@@H]1O[C@@H]1c1cccc(c1-3)[C@@H]1O[C@H]21 | 15.3 | 28.2 µM (inactive) | 26.7 µM (inactive) | 11 µM (inactive) | 15.8 µM (inactive) | 11.5 µM (inactive) | 18.1 µM (inactive) | 4.29 µM (inactive) | 15.8 µM (inactive) | 12.8 µM (inactive) | 5.24 µM (inactive) | 11.9 µM (inactive) | 20 µM (inactive) | 10.2 µM (inactive) | 19.1 µM (inactive) | 16.1 µM (inactive) | – | – | – | – |
| O=C(OCc1ccccc1)OOC(=O)OCc1ccccc1 | > 100 | – | > 100 µM (inactive) | > 100 µM (inactive) | > 100 µM (inactive) | – | > 100 µM (inactive) | > 100 µM (inactive) | > 100 µM (inactive) | > 100 µM (inactive) | > 100 µM (inactive) | > 100 µM (inactive) | > 100 µM (inactive) | > 100 µM (inactive) | > 100 µM (inactive) | > 100 µM (inactive) | > 100 µM (inactive) | > 100 µM (inactive) | > 100 µM (inactive) | > 100 µM (inactive) |
| CC[C@H]1CN2CCc3cc(OC)c(OC)cc3[C@@H]2C[C@@H]1C[C@H]1NCCc2cc(O)c(OC)cc21 | 0.0491 | – | 0.0562 µM (active) | – | 0.0326 µM (active) | 0.025 µM (active) | 0.25 µM (active) | 0.025 µM (active) | – | 0.0557 µM (active) | 0.025 µM (active) | 0.0333 µM (active) | 0.0478 µM (active) | 0.041 µM (active) | – | 0.025 µM (active) | 0.025 µM (active) | 0.0377 µM (active) | 0.025 µM (active) | 0.0282 µM (active) |
| N/N=C(\C(=O)Nc1c(Cl)cc([N+](=O)[O-])cc1Cl)C(c1cnc2ccc([N+](=O)[O-])cc2n1)[N+](=O)[O-] (stereo unspecified) | > 100 | 6.71 µM (inactive) | > 100 µM (inactive) | – | > 100 µM (inactive) | > 100 µM (inactive) | > 100 µM (inactive) | 46.6 µM (inactive) | > 100 µM (inactive) | > 100 µM (inactive) | > 100 µM (inactive) | > 100 µM (inactive) | 36.9 µM (inactive) | > 100 µM (inactive) | > 100 µM (inactive) | 37.8 µM (inactive) | 99.3 µM (inactive) | – | 28.1 µM (inactive) | > 100 µM (inactive) |
| CN(C)C(=O)C(F)(F)C(c1ccc(Br)cc1)C1C(=O)N(C)C(=O)N(C)C1=O (stereo unspecified) | > 100 | > 100 µM (inactive) | > 100 µM (inactive) | > 100 µM (inactive) | > 100 µM (inactive) | – | > 100 µM (inactive) | > 100 µM (inactive) | > 100 µM (inactive) | > 100 µM (inactive) | > 100 µM (inactive) | > 100 µM (inactive) | > 100 µM (inactive) | > 100 µM (inactive) | > 100 µM (inactive) | > 100 µM (inactive) | > 100 µM (inactive) | > 100 µM (inactive) | – | > 100 µM (inactive) |
| Cc1ccc(C(=O)Cc2nc3c([nH]c2=O)c(C)nn3-c2ccccc2)c(C)c1 | > 10 | – | > 10 µM (inactive) | > 10 µM (inactive) | > 10 µM (inactive) | 8.22 µM (inactive) | – | > 10 µM (inactive) | > 10 µM (inactive) | > 10 µM (inactive) | 4.69 µM (inactive) | > 10 µM (inactive) | > 10 µM (inactive) | > 10 µM (inactive) | – | – | 6.59 µM (inactive) | 3.25 µM (inactive) | 9.04 µM (inactive) | – |
| CCOC(=O)C1=NN(c2ccc(Cl)cc2)C2=CC(C)=NN(C)C(=S)N21 | 67.5 | – | 29.9 µM (inactive) | 59.7 µM (inactive) | 42.2 µM (inactive) | 41.3 µM (inactive) | > 100 µM (inactive) | > 100 µM (inactive) | > 100 µM (inactive) | 45.2 µM (inactive) | 36.6 µM (inactive) | 25.9 µM (inactive) | 40.6 µM (inactive) | > 100 µM (inactive) | – | 29.9 µM (inactive) | 94.6 µM (inactive) | 56.5 µM (inactive) | > 100 µM (inactive) | > 100 µM (inactive) |
| CC(=C(c1ccccc1)c1ccccc1)N1C(=O)CC(=O)N1C | – | > 100 µM (inactive) | > 100 µM (inactive) | 24.7 µM (inactive) | 52.7 µM (inactive) | 99.1 µM (inactive) | 53.2 µM (inactive) | 55.5 µM (inactive) | > 100 µM (inactive) | 25.5 µM (inactive) | 74.6 µM (inactive) | 61.4 µM (inactive) | 26 µM (inactive) | 55.5 µM (inactive) | – | 53.3 µM (inactive) | > 100 µM (inactive) | 32.4 µM (inactive) | – | 29.2 µM (inactive) |
